For this experiment, the target named is T1, recombinant full-length USP7 (Homo sapiens, UniProt Q93009).
T1 construct: A 25 μl reaction volume containing recombinant full-length USP7 (62 pM)
The experiment is described as follows: USP7-mediated ubiquitin-rhodamine cleavage assay. In kind it is biochemical. As to conditions: recombinant full-length USP7 62 pM; ubiquitin-rhodamine 100 nM; 30-minute incubation with compound, 1 hour reaction at room temperature; read-out: Potency: USP7 IC50. The method, boiled down: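 IC50 values came from fluorescence measured after a 1 h room-temperature reaction of 62 pM enzyme with 100 nM ubiquitin-rhodamine, following 30 min compound preincubation; fits used four parameters.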

Where a name gives a salt, the structure may show the parent alone.

T1 sequence (Q93009 whole entry): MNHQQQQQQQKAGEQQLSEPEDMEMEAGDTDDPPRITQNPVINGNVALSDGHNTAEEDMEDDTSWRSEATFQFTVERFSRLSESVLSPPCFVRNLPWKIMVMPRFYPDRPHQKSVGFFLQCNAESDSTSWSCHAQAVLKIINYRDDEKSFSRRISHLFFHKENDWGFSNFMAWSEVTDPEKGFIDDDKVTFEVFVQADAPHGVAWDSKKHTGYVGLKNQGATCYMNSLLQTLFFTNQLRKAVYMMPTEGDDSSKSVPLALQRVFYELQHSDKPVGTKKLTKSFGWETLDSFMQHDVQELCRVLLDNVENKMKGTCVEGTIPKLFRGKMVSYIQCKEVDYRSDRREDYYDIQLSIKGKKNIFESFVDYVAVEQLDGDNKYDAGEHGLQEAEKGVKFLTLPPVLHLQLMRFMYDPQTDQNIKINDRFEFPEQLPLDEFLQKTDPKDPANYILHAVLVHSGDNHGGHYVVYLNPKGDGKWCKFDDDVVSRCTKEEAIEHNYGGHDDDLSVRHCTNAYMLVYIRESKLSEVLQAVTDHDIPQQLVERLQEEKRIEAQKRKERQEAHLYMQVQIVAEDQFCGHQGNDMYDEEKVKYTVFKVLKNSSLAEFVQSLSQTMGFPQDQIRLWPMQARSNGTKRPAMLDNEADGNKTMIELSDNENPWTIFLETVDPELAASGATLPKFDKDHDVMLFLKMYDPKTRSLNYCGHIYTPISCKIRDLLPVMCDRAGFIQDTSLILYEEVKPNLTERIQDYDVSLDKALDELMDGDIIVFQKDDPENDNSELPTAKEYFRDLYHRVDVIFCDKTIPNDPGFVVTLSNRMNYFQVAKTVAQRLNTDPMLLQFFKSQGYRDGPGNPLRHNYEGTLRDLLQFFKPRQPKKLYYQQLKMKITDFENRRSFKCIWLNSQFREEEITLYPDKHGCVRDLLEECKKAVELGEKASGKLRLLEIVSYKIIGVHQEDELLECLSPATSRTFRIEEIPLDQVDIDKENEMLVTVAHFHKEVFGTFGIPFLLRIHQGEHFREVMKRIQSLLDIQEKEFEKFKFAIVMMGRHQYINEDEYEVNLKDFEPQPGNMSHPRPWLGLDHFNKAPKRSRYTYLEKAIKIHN

Broadly, the IC50 is the point on the concentration scale where inhibition reaches its midpoint. On to `Cc1cc(Cl)cc(-c2ccnc3cc([C@H](C)N4C(=O)CCC4=O)sc23)c1O[C@@H]1CCNC[C@H]1F` [Example 289, 1-[(1S)-1-[7-[5-chloro-2-[[(3R,4R)-3-fluoro-4-piperidyl]oxy]-3-methyl-phenyl]thieno[3,2-b]pyridin-2-yl]ethyl]pyrrolidine-2,5-dione; 2,2,2-trifluoroacetic acid], for which the IC50 was under 1000 nM.

Turning to `COc1ccc(C(=O)O)cc1-c1ccnc2cc(Cn3c(=O)ccn(CC(F)(F)F)c3=O)sc12` [Example 290, 3-[2-[[2,6-dioxo-3-(2,2,2-trifluoroethyl)pyrimidin-1-yl]methyl]thieno[3,2-b]pyridin-7-yl]-4-methoxy-benzoic acid], the 50% inhibitory concentration (IC50) is 1000 to 10000 nM.

Take `Cc1cc(C(=O)O)cc(-c2ccnc3cc(Cn4c(=O)ccn(CC(F)(F)F)c4=O)sc23)c1O[C@H]1CCCNC1` [Example 291, 3-[2-[[2,6-dioxo-3-(2,2,2-trifluoroethyl)pyrimidin-1-yl]methyl]thieno[3,2-b]pyridin-7-yl]-5-methyl-4-[[(3S)-3-piperidyl]oxy]benzoic acid]: the IC50 was under 1000 nM.

On to `C[C@H]1CNCC[C@H]1Oc1ccccc1-c1ccnc2cc(Cn3c(=O)ccn(CC(F)(F)F)c3=O)sc12` [Example 292, 3-[[7-[2-[[(3S,4R)-3-methyl-4-piperidyl]oxy]phenyl]thieno[3,2-b]pyridin-2-yl]methyl]-1-(2,2,2-trifluoroethyl)pyrimidine-2,4-dione], for which the IC50 was under 1000 nM.

As for `Cc1cc(Cl)cc(-c2ccnc3cc(CN4C(=O)C5CC5C4=O)sc23)c1O[C@@H]1CCNC[C@H]1F` (stereo partly drawn) [Example 293, 3-[[7-[5-chloro-2-[[(3R,4R)-3-fluoro-4-piperidyl]oxy]-3-methyl-phenyl]thieno[3,2-b]pyridin-2-yl]methyl]-3-azabicyclo[3.1.0]hexane-2,4-dione; 2,2,2-trifluoroacetic acid], the IC50 was under 1000 nM.

Regarding `Cc1cc(Cl)cc(-c2ccnc3cc(CN4C(=O)C5C(C4=O)C5(C)C)sc23)c1O[C@@H]1CCNC[C@H]1F` (stereo partly drawn) [Example 294, 3-[[7-[5-chloro-2-[[(3R,4R)-3-fluoro-4-piperidyl]oxy]-3-methyl-phenyl]thieno[3,2-b]pyridin-2-yl]methyl]-6,6-dimethyl-3-azabicyclo[3.1.0]hexane-2,4-dione; 2,2,2-trifluoroacetic acid], the IC50 was under 1000 nM.

Turning to `Cc1cc(Cl)cc(-c2ccnc3cc(CN4C(=O)SC(C)(C)C4=O)sc23)c1O[C@H]1CCCNC1` [Example 295, 3-[[7-[5-chloro-3-methyl-2-[[(3S)-3-piperidyl]oxy]phenyl]thieno[3,2-b]pyridin-2-yl]methyl]-5,5-dimethyl-thiazolidine-2,4-dione; 2,2,2-trifluoroacetic acid], the IC50 was under 1000 nM.

As to `Cc1cc(Cl)cc(-c2ccnc3cc(CN4C(=O)C(C)C(C)C4=O)sc23)c1O[C@H]1CCCNC1` (stereo partly drawn) [Example 296, 1-[[7-[5-chloro-3-methyl-2-[[(3S)-3-piperidyl]oxy]phenyl]thieno[3,2-b]pyridin-2-yl]methyl]-3,4-dimethyl-pyrrolidine-2,5-dione; 2,2,2-trifluoroacetic acid], the concentration for half-maximal inhibition (IC50) is under 1000 nM.

Take `Cc1cc(Cl)cc(-c2ccnc3cc(CN4C(=O)C5CCC5C4=O)sc23)c1O[C@H]1CCCNC1` (stereo partly drawn) [Example 297, 3-[[7-[5-chloro-3-methyl-2-[[(3S)-3-piperidyl]oxy]phenyl]thieno[3,2-b]pyridin-2-yl]methyl]-3-azabicyclo[3.2.0]heptane-2,4-dione; 2,2,2-trifluoroacetic acid]: the IC50 was under 1000 nM.

On to `Cc1cc(Cl)cc(-c2ccnc3cc(CN4C(=O)CCC4=O)sc23)c1O[C@@H]1C[C@H]2CN[C@@H]1C2` [Example 298, 1-[[7-[2-[[(1S,4R,5R)-3-azabicyclo[2.2.1]heptan-5-yl]oxy]-5-chloro-3-methyl-phenyl]thieno[3,2-b]pyridin-2-yl]methyl]pyrrolidine-2,5-dione], for which the half-maximal inhibitory concentration (IC50) is under 1000 nM.

As for `CCN1C[C@H](F)[C@H](Oc2c(C)cc(Cl)cc2-c2ccnc3cc(CN4C(=O)CCC4=O)sc23)C1` [Example 299, 1-[[7-[5-chloro-2-[(3R,4S)-1-ethyl-4-fluoro-pyrrolidin-3-yl]oxy-3-methyl-phenyl]thieno[3,2-b]pyridin-2-yl]methyl]pyrrolidine-2,5-dione], the IC50 was under 1000 nM.

Turning to `Cc1cc(Cl)cc(-c2ccnc3cc(CN4C(=O)C5CC5C4=O)sc23)c1O[C@@H]1CNC[C@@H]1F` (stereo partly drawn) [Example 300, 3-[[7-[5-chloro-2-[(3R,4S)-4-fluoropyrrolidin-3-yl]oxy-3-methyl-phenyl]thieno[3,2-b]pyridin-2-yl]methyl]-3-azabicyclo[3.1.0]hexane-2,4-dione], the IC50 is under 1000 nM.

On to `Cc1cc(Cl)cc(-c2ccnc3cc(CN4C(=O)C5CC5C4=O)sc23)c1OC1CCNC1C` (stereo not shown) [Example 301, 3-[[7-[5-chloro-3-methyl-2-(2-methylpyrrolidin-3-yl)oxy-phenyl]thieno[3,2-b]pyridin-2-yl]methyl]-3-azabicyclo[3.1.0]hexane-2,4-dione; 2,2,2-trifluoroacetic acid], for which the half-inhibitory concentration (IC50) was under 1000 nM.

With `Cc1cc(Cl)cc(-c2ccnc3cc(CN4C(=O)CCC4=O)sc23)c1O[C@@H]1CN(CCO)C[C@@H]1F` [Example 302, 1-[[7-[5-chloro-2-[(3R,4S)-4-fluoro-1-(2-hydroxyethyl)pyrrolidin-3-yl]oxy-3-methyl-phenyl]thieno[3,2-b]pyridin-2-yl]methyl]pyrrolidine-2,5-dione], the IC50 is under 1000 nM.

In the case of `Cc1cc(Cl)cc(-c2ccnc3cc(CN4C(=O)CCC4=O)sc23)c1O[C@@H]1CCNC[C@@H]1C` [Example 303, 1-[[7-[5-chloro-3-methyl-2-[[(3S,4R)-3-methyl-4-piperidyl]oxy]phenyl]thieno[3,2-b]pyridin-2-yl]methyl]pyrrolidine-2,5-dione], the IC50 was under 1000 nM.

For `Cc1cc(Cl)cc(-c2ccnc3cc(CN4C(=O)C5CC5C4=O)sc23)c1O[C@H]1CC[C@H](C)NC1` (stereo partly drawn) [Example 305, 3-[[7-[5-chloro-3-methyl-2-[[(3S,6S)-6-methyl-3-piperidyl]oxy]phenyl]thieno[3,2-b]pyridin-2-yl]methyl]-3-azabicyclo[3.1.0]hexane-2,4-dione; 2,2,2-trifluoroacetic acid], the concentration for half-maximal inhibition (IC50) was under 1000 nM.

As to `Cc1cc(Cl)cc(-c2ncnc3cc(CN4C(=O)CCC4=O)sc23)c1O[C@@H]1CCNC[C@H]1F` [Example 306, 1-[[4-[5-chloro-2-[[(3R,4R)-3-fluoro-4-piperidyl]oxy]-3-methyl-phenyl]thieno[3,2-d]pyrimidin-6-yl]methyl]pyrrolidine-2,5-dione dihydrochloride], the IC50 is under 1000 nM.

`CCN1CC[C@@H](Oc2c(C)cc(Cl)cc2-c2ccnc3cc(CN4C(=O)CCC4=O)sc23)[C@@H](C)C1` [Example 307, 1-[[7-[5-chloro-2-[[(3S,4R)-1-ethyl-3-methyl-4-piperidyl]oxy]-3-methyl-phenyl]thieno[3,2-b]pyridin-2-yl]methyl]pyrrolidine-2,5-dione]: the IC50 is under 1000 nM.

As for `Cc1cc(Cl)cc(-c2ccnc3cc(CN4C(=O)CCC4=O)sc23)c1O[C@@H]1CCN(C)C[C@@H]1C` [Example 308, 1-[[7-[5-chloro-2-[[(3S,4R)-1,3-dimethyl-4-piperidyl]oxy]-3-methyl-phenyl]thieno[3,2-b]pyridin-2-yl]methyl]pyrrolidine-2,5-dione], the IC50 is under 1000 nM.
